Assay results from patent US7968752B2, “Hydrolytically-resistant boron-containing therapeutics and methods of use” (Anacor Pharmaceuticals, Inc., priority 2003, dated 2011).
Values after ≈ are worked out from the molar mass of the structure shown.

Legend:
S. aureus ATCC 29213 = experiment: MIC determination (NCCLS broth microdilution); format: cell-based; conditions: 24 hours at 34° C., lowest concentration with >=80% inhibition; for MIC: Staphylococcus aureus, ATCC29213
[1] = system: S. epidermidis ATCC 12228; experiment: MIC determination (NCCLS broth microdilution); format: cell-based; conditions: 24 hours at 34° C., lowest concentration with >=80% inhibition; for MIC: Staphylococcus epidermidis, ATCC12228
S. pneumoniae ATCC 6301 = experiment: MIC determination (NCCLS broth microdilution); format: cell-based; conditions: 24 hours at 34° C., lowest concentration with >=80% inhibition; for MIC: Streptococcus pneumoniae, ATCC6301
S. faecalis ATCC 29212 = experiment: MIC determination (NCCLS broth microdilution); format: cell-based; conditions: 24 hours at 34° C., lowest concentration with >=80% inhibition; for MIC: Enterococcus faecalis, ATCC29212
S. faecium CT-26 = experiment: MIC determination (NCCLS broth microdilution); format: cell-based; conditions: 24 hours at 34° C., lowest concentration with >=80% inhibition; for MIC: Enterococcus faecium, CT26
17D strain YFV virus = experiment: microbe, parasite or virus in culture; format: cell-based, Yellow Fever (YFV); conditions: Yellow fever virus, HeLa, 168 h, read-out: Anti-Yellow Fever Activity IC50
HBV ayw1 strain = experiment: HepG2 2.15 Antiviral Evaluation Assay; format: cell-based; conditions: Hepatitis B virus; HepG2 2.2.15 cells; read-out: Anti-Hepatitis B Activity IC50
Method: (§1) HepG2 2.15 Antiviral Evaluation Assay—HepG2 2.2.15 cells, which produce HBV ayw1 strain, were plated in 96-well collagencoated microtiter plates at a density of 2.5×10^4/well with DMEM medium supplemented with 2% fetal bovine serum. One day following plating of cells, the wells were washed and the medium was replaced with complete medium containing the test compound diluted in the medium in a half-log series.
(§2) The medium was replaced once with the fresh medium containing the freshly diluted compound three days post the initial addition of the lamivudine, a positive control compound. Cell viability was determined using CellTiter 96® Reagent (Promega, Madison, Wis.) according to the manufacturer's protocol, using a Vmax plate reader (Molecular Devices, Sunnyvale, Calif.). The mixture is metabolized by the mitochondrial enzymes of metabolically active cells to a soluble formazan product, allowing the rapid quantitative analysis of cell numbers. The media was removed and replaced with 100 μl of fresh media and 10 μl of Cell Titer 96. […] Percent cell viability of compound treated wells compared to no compound controls was calculated using an in-house computer program which graphs the percent reduction in viral cytopathic effects and the cell numbers at each drug concentration relative to control values.

[2] = Cell viability (CellTiter 96) in HepG2 2.15 assay; format: cell-based; conditions: human, HepG2 2.2.15 cells (produce HBV ayw1 strain); read-out: Anti-Hepatitis B Activity TC50
Method: as §1, §2

in vitro = conditions: human
[3] = Cytotoxicity in HCV RNA replicon assay; conditions: human, ET cell line (luc-ubi-neo/ET)

SMILES	MIC (S. aureus ATCC 29213) [µg/mL]	MIC [1] [µg/mL]	MIC (S. pneumoniae ATCC 6301) [µg/mL]	MIC (S. faecalis ATCC 29212) [µg/mL]	MIC (S. faecium CT-26) [µg/mL]	IC50 (17D strain YFV virus) [nM]	IC50 (HBV ayw1 strain) [nM]	CC50 [2] [nM]	CC50 at 7 day (in vitro) [nM]	CC50 at 72 hr [3] [nM]	MIC S. aureus ATCC 29213 (S. aureus ATCC 29213) [micrograms per ml]	MIC S. epidermidis ATCC 12228 [1] [micrograms per ml]	MIC S. pneumoniae ATCC 6301 (S. pneumoniae ATCC 6301) [micrograms per ml]	MIC S. faecalis ATCC 29212 (S. faecalis ATCC 29212) [micrograms per ml]	MIC S. faecium CT-26 (S. faecium CT-26) [micrograms per ml]
CO/N=C(\C(=O)N[C@@H]1C(=O)N2C(C(=O)O)=C(CSc3nc(=O)c(=O)[nH]n3C)CS[C@H]12)c1csc(N)n1 [Ceftriaxone, reference compound]	2 (≈ 3.61 µM)	1 (≈ 1.8 µM)	0.125 (≈ 0.225 µM)	64 (≈ 115 µM)	64 (≈ 115 µM)										
Cc1onc(-c2ccccc2Cl)c1C(=O)N[C@@H]1C(=O)N2[C@@H]1SC(C)(C)[C@@H]2C(=O)O [Cloxacillin, reference compound]	0.125 (≈ 0.287 µM)	0.25 (≈ 0.574 µM)	0.125 (≈ 0.287 µM)	16 (≈ 36.7 µM)	64 (≈ 147 µM)										
Fc1ccc2c(c1)COB2c1cccc(Cl)c1 [Compound 11, 1-(3-Chlorophenyl)-5-fluoro-1,3-dihydrobenzo[c][1,2]oxaborole]	< 0.125	1 (≈ 4.06 µM)	8 (≈ 32.5 µM)	32 (≈ 130 µM)	32 (≈ 130 µM)	650	2470	3200	4140	1290					
Clc1cccc(B2OCc3ccccc32)c1 [Compound 12, 1-(3-Chlorophenyl)-1,3-dihydrobenzo[c][1,2]oxaborole]	0.5 (≈ 2.19 µM)	2 (≈ 8.75 µM)	8 (≈ 35 µM)	16 (≈ 70 µM)	16 (≈ 70 µM)					12700					
Fc1cccc(B2OCc3cc(Cl)ccc32)c1 [Compound 13, 5-Chloro-1-(3-Fluorophenyl)-1,3-dihydrobenzo[c][1,2]oxaborole]	< 0.125	0.25 (≈ 1.01 µM)	4 (≈ 16.2 µM)	16 (≈ 64.9 µM)	8 (≈ 32.5 µM)	1390			6220	370					
N#Cc1cccc(B2OCc3ccccc32)c1 [Compound 14, 3-(Benzo[c][1,2]oxaborol-1(3H)-yl)benzonitrile]	0.25 (≈ 1.14 µM)	2 (≈ 9.13 µM)	2 (≈ 9.13 µM)	32 (≈ 146 µM)	16 (≈ 73 µM)	440			6530	1140					
Fc1ccc2c(c1)B(c1cccc(Cl)c1)OC2 [Compound 15, 1-(3-Chlorophenyl)-6-fluoro-1,3-dihydrobenzo[c][1,2]oxaborole]	0.5 (≈ 2.03 µM)	2 (≈ 8.11 µM)	4 (≈ 16.2 µM)	16 (≈ 64.9 µM)	8 (≈ 32.5 µM)	1190			6600	540					
CC1(C)OB(c2cccc(Cl)c2)c2ccccc21 [Compound 16, 1-(3-Chlorophenyl)-1,3-dihydro-3,3-dimethylbenzo[c][1,2]oxaborole]	0.5 (≈ 1.95 µM)	2 (≈ 7.8 µM)	8 (≈ 31.2 µM)	16 (≈ 62.4 µM)	16 (≈ 62.4 µM)										
Clc1ccc(B2OCc3ccccc32)cc1 [Compound 17, 1-(4-Chlorophenyl)-1,3-dihydrobenzo[c][1,2]oxaborole]	2 (≈ 8.75 µM)	2 (≈ 8.75 µM)	4 (≈ 17.5 µM)	16 (≈ 70 µM)	16 (≈ 70 µM)	1560			6420	260					
N#Cc1ccc(B2OCc3ccccc32)cc1 [Compound 18, 4-(Benzo[c][1,2]oxaborol-1(3H)-yl)benzonitrile]	2 (≈ 9.13 µM)	2 (≈ 9.13 µM)	4 (≈ 18.3 µM)	32 (≈ 146 µM)	32 (≈ 146 µM)	740			6600						
N#Cc1ccc(B2OCc3cc(F)ccc32)cc1 [Compound 19, 4(5-Fluorobenzo[c][1,2]oxaborol-1(3H)-yl)benzonitrile]	8 (≈ 33.7 µM)	16 (≈ 67.5 µM)	16 (≈ 67.5 µM)	> 64	> 64				17100	270					
N#Cc1cccc(B2OCc3cc(F)ccc32)c1 [Compound 20, 3-(5-Fluorobenzo[c][1,2]oxaborol-1(3H)-yl)benzonitrile]	1 (≈ 4.22 µM)	16 (≈ 67.5 µM)	8 (≈ 33.7 µM)	64 (≈ 270 µM)	64 (≈ 270 µM)	1620			21000	5990					
N#Cc1cccc(B2OCc3ccc(F)cc32)c1 [Compound 21, 3-(6-Fluorobenzo[c][1,2]oxaborol-1(3H)-yl)benzonitrile]	8 (≈ 33.7 µM)	16 (≈ 67.5 µM)	8 (≈ 33.7 µM)	64 (≈ 270 µM)	64 (≈ 270 µM)	2360			15800	690					
NCc1ccc(B2OCc3cc(F)ccc32)cc1 [Compound 23]	2 (≈ 8.3 µM)	8 (≈ 33.2 µM)	8 (≈ 33.2 µM)	16 (≈ 66.4 µM)	16 (≈ 66.4 µM)										
NCc1cccc(B2OCc3cc(F)ccc32)c1 [Compound 24]	4 (≈ 16.6 µM)	8 (≈ 33.2 µM)	16 (≈ 66.4 µM)	32 (≈ 133 µM)	32 (≈ 133 µM)										
CC[C@H]1OC(=O)[C@H](C)[C@@H](O[C@H]2C[C@@](C)(OC)[C@@H](O)[C@H](C)O2)[C@H](C)[C@@H](O[C@@H]2O[C@H](C)C[C@H](N(C)C)[C@H]2O)[C@](C)(O)C[C@@H](C)C(=O)[C@H](C)[C@@H](O)[C@]1(C)O [Erythromycin, reference compound]	0.5 (≈ 0.681 µM)	0.5 (≈ 0.681 µM)		2 (≈ 2.73 µM)											
C[C@@H](O)[C@H]1C(=O)N2C(C(=O)O)=C(SCCN=CN)C[C@H]12 [Imipenem, reference compound]	0.125 (≈ 0.418 µM)	0.125 (≈ 0.418 µM)	0.125 (≈ 0.418 µM)	1 (≈ 3.34 µM)	64 (≈ 214 µM)										
CC1(C)S[C@@H]2[C@H](NC(=O)Cc3ccccc3)C(=O)N2[C@H]1C(=O)O [Pen G, reference compound]											0.5	16	0.125	1	32
Nc1ccn([C@@H]2CS[C@H](CO)O2)c(=O)n1 [lamivudine, reference compound]							9.3	> 1000							
